Test: xn = mol fraction of the nth substance listed
Conditions: 101 kPa; for electrical conductivity: 298.15 K

C[NH+](C)C.O=S(=O)([N-]S(=O)(=O)C(F)(F)F)C(F)(F)F + O=C1CCCO1
Conditions | electrical conductivity [S/m]
x1 = 0.0005 | 0.043
x1 = 0.0008 | 0.059
x2 = 0.5239 | 1.89

Conditions | viscosity [mPa·s]
303.15 K, x2 = 0.8088 | 3.08
303.15 K, x2 = 0.8803 | 2.34
313.15 K, x2 = 0.672 | 3.62
313.15 K, x2 = 0.8803 | 1.86
333.15 K, x2 = 0.7428 | 1.87
343.15 K, x2 = 0.8803 | 0.98

Source: the CheMixHub ionic liquid set
